{
  "source": "patent US5633003A",
  "about": "“Use of intratracheally administered hyaluronic acid to ameliorate emphysema” (priority 1994, dated 1997)",
  "key": {"[1]": {"system": "elastase-induced emphysema", "test": "Hyaluronidase-elastase model, mean linear intercept measurement of air-space size", "type": "in vivo, Syrian hamsters", "protocol": "To determine the effects of hyaluronidase on elastase-induced emphysema, Syrian hamsters received intratracheal instillments of bovine testicular hyaluronidase and, 24 hours later, porcine pancreatic elastase. Controls received: 1) saline followed by elastase, 2) elastase followed by hyaluronidase, and 3) saline followed by saline. Air-space enlargement was measured one week later, using the mean linear intercept method (8). Changes in lung elastin content were determined at 24 and 48 hours by quantifying elastin-specific desmosine and isodesmosine cross-links.\nFemale Syrian hamsters, weighing approximately 100 gms each, were anesthetized by intramuscular injection of ketamine hydrochloride (10 mg in 0.1 ml). The animals were then placed on a rodent surgical table (Harvard Bioscience, South Natick, Mass.) and restrained with elastic bands. The neck fur was shaved with a scalpel and a 2-cm vertical incision was made through the skin and subcutaneous fat. The underlying muscle was then cut to expose the trachea. A 26-gauge needle mounted on a 1-ml syringe was placed inside the tracheal lumen and 900 unite of highly purified bovine testicular hyaluronidase (Sigma Chemical Co., St. Louis, Mo.), dissolved in 0.3 ml normal saline solution, were delivered to the lungs in small increments. Twenty-four hours later, 20 units of porcine pancreatic elastase (Elastin Products, Pacific, Mo.), dissolved in 0.2 ml saline solution, were instilled by the same method. The incision was then closed with several sutures."}, "[2]": {"system": "elastase-induced emphysema", "test": "Hyaluronic acid-elastase model, mean linear intercept measurement of air-space size", "type": "in vivo, Syrian hamsters", "details": "1 week", "protocol": "(§1) To test the possibility that addition of hyaluronic acid may inhibit air-space enlargement, Syrian hamsters were instilled with elastase intratracheally, then immediately given 1 mg of bovine tracheal hyaluronic acid by the same route. Controls received elastase followed by saline alone. Changes in air-space size were evaluated one week later, using the mean linear intercept method (8). To determine whether hyaluronic acid has elastase inhibitory capacity, it was incubated with pancreatic elastase in the presence of ^3 H-elastin. Controls contained elastase and ^3 H-elastin alone.\nFollowing intratracheal administration of 20 units of pancreatic elastase (see above procedure), hamsters immediately received, by the same route, 1 mg of bovine tracheal hyaluronic acid (Sigma Chemical Co., St. Louis, Mo.), dissolved in 0.2 ml of saline solution."}, "pancreatic elastase": {"system": "pancreatic elastase", "test": "Measurement of elastase inhibitory capacity of hyaluronic acid (release of radioactivity from 3H-elastin)", "type": "biochemical, porcine", "details": "1, 10, 100 μg hyaluronic acid, 1 μg elastase, pH 8.0, 37° C., 22 hours, preincubated with elastase or 3H-elastin", "protocol": "as §1\nVarious amounts of hyaluronic acid (1,10,100 μg) were incubated with pancreatic elastase (1 μg) and ^3 H-elastin in 0.2M Tris buffer, pH 8.0, at 37° C. for 22 hours (7,10). Hyaluronic acid was preincubated with either elastase or ^3 H-elastin for 10 minutes prior to the start of the assay. This was done to allow for the possible binding of one component to another. Following incubation, the samples were filtered, combined with scintillation fluid, and measured for radioactivity. The results were adjusted for nonspecific release of radioactivity and expressed as net counts per minute."}, "lungs": {"system": "lungs", "details": "hamster, in vivo", "excerpt": "One week after completion of the enzyme instillments, the hamsters were sacrificed by intraperitoneal injection of chloral hydrate. Their lungs were then fixed in-situ by inserting a catheter into the tracheas and allowing 10% neutral-buffered formalin to inflate the tissues at a pressure of 20 cm H2 O. Two hours later, the catheter was removed and the trachea was tied off to minimize deflation. both the lungs and heart were removed from the chest as a single block and additionally fixed in 10% formalin for several days. The lungs were then dissected free of extrapulmonary structures, sectioned randomly, and entirely submitted for histological processing."}, "3H-elastin": {"system": "3H-elastin", "details": "incubation with 3H-elastin; cited from earlier work"}, "lung air-space": {"system": "lung air-space", "details": "hyaluronidase alone; cited from earlier work"}},
  "note": "Entries after “also recorded” stand apart in the source; their conditions may differ.",
  "data": [
    {"substance": "elastase: porcine pancreatic elastase (Elastin Products), used to induce emphysema", "values": [
      {"measurement": "mean linear intercept value", "setting": "[1]; saline followed 24 hours later by elastase 20 units (model control), 1 week", "result": 100, "unit": "um"},
      {"measurement": "mean linear intercept (air-space size)", "setting": "[2]; elastase followed immediately by saline (model control)", "result": 122, "unit": "um"}
    ]},
    {"substance": "hyaluronic acid", "values": [
      {"measurement": "pancreatic elastase activity (release of radioactivity from 3H-elastin)", "setting": "pancreatic elastase", "result": "no elastase inhibitory capacity; also recorded: did not reduce ^3 H-elastin breakdown, but instead caused a marked increase in the release of radioactivity; also recorded: does not prevent elastin from being degraded by elastase in-vitro"},
      {"measurement": "pancreatic elastase activity (release of radioactivity from 3H-elastin)", "setting": "pancreatic elastase; listed as Hyaluronic acid", "result": "enhanced, rather than inhibited, pancreatic elastase activity"},
      {"measurement": "histological changes of the lungs", "setting": "lungs", "result": "No specific changes"},
      {"measurement": "mean linear intercept (air-space size)", "setting": "[2]; 1 mg hyaluronic acid intratracheally immediately after 20 units elastase, control elastase then saline 122 um", "result": 82, "unit": "um"},
      {"measurement": "air-space enlargement", "setting": "[2]; hyaluronic acid intratracheally immediately after elastase, vs elastase followed by saline", "result": "significantly reduced the amount of air-space enlargement; also recorded: marked decrease in air-space enlargement; also recorded: marked reduction in air-space enlargement"}
    ]},
    {"substance": "hyaluronidase", "values": [
      {"measurement": "elastase activity of the hyaluronidase preparation", "setting": "3H-elastin", "result": "no elastase activity"},
      {"measurement": "mean linear intercept value", "setting": "[1]; elastase followed by hyaluronidase (reversed order), 1 week", "result": 95.3, "unit": "um"},
      {"measurement": "mean linear intercept value", "setting": "[1]; hyaluronidase 900 units intratracheally 24 hours prior to elastase, 1 week", "result": 128, "unit": "um"},
      {"measurement": "effect of hyaluronidase on air-space enlargement", "setting": "[1]; order of enzyme administration reversed (elastase then hyaluronidase)", "result": "abolished this effect; also recorded: extinguished"},
      {"measurement": "elastase-induced air-space enlargement", "setting": "[1]; pre-treatment with hyaluronidase, then elastase, 1 week", "result": "significantly increased elastase-induced air-space enlargement; also recorded: markedly enhanced"},
      {"measurement": "air-space dilation", "setting": "lung air-space", "result": "does not cause significant air-space dilation"}
    ]}
  ]
}
